These results are taken from patent publication US5580775A, “High affinity, brain-specific nucleic acids encoding a L-proline transporter, and vectors, and host cells comprising the same” (Emory University, priority 1992, dated 1996).

Read-outs that look alike come from different tables or passages of the source. Peptide text beside a SMILES is read from it.

The target of series [1] is T1, rat brain L-proline transporter (Rattus norvegicus, UniProt P28573).
T1 sequence (P28573 1-637): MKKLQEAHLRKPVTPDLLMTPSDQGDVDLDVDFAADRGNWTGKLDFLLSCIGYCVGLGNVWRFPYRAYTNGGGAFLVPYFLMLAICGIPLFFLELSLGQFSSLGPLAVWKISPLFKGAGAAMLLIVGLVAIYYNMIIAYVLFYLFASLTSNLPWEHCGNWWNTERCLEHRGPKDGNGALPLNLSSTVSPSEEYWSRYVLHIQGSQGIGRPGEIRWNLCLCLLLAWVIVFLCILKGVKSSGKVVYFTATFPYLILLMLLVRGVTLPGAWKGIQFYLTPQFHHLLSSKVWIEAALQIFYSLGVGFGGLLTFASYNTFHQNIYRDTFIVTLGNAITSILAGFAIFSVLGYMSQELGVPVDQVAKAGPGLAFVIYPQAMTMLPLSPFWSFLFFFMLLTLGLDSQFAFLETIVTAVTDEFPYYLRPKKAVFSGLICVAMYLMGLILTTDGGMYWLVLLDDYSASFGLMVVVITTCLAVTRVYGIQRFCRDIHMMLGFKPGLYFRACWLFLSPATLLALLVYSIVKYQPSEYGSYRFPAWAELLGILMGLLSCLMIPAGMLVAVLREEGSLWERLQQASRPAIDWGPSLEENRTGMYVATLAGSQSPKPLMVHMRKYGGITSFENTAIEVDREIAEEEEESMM
Put plainly: cell-based.

Series [2] concerns the target T1, rat brain L-proline transporter. Briefly: Transport of L-[3H]glutamate or D-[3H]aspartate in HeLa fibroblasts expressing the transporter cDNA. The format is cell-based. Conditions: transient expression in HeLa fibroblasts.
The next series concerns rat brain synaptosomes. Particulars: cited from earlier work.
For series [3], the target named is T2, high affinity, Na^+ -dependent rat brain L-proline transporter (Rattus norvegicus, UniProt P28573).
T2 sequence (P28573 1-637): T1 sequence (P28573 1-637)
Put plainly: L-proline uptake (saturation kinetics, Na+ dependence) in HeLa cells transfected with pPROT.

Substrate in series [4]: O=C(O)[C@@H]1CCCN1
Put plainly: cells, lysate or membranes. Particulars: other: 20 min incubation, 50 nM L-[3H]proline plus unlabeled L-proline, HeLa cells transfected with pPROT.

The mark [5] stands for this setting: read-out: Ki values in excess of 100 μM (inhibition of proline uptake).
Where [6] appears, read: Ki (inhibition of proline uptake).
[7] abbreviates: read-out: Ki (inhibition of proline uptake).

Consider `COC(=O)[C@@H]1CCCN1` [L-Proline methyl ester], for which the Ki in series [1] (setting [5]) was greater than 100 µM.
Still for that read-out and setting: next, `NC(=O)CC[C@H](N)C(=O)O` [L-Glutamine]: greater than 100 µM; `N[C@@H](CO)C(=O)O` [L-Serine]: greater than 100 µM.
For `NCC(=O)O` [Glycine], the Ki in series [1] (setting [5]) was greater than 100 µM.
Consider `O=C(O)C1C=CCN1` (stereo not drawn) [3,4-Dehydroproline], for which the affinity in series [1] (setting [6]) corresponds to a Ki of 31 µM.
On to `CNCC(=O)O` [Sarcosine], for which the inhibitory constant (Ki) in series [1] (setting [7]) came out at 30 µM.
With `O=C(O)[C@@H]1CCN1` [L-Azetidine-2-carboxylic acid], the Ki in series [1] (setting [7]) was 115 µM; in series [1] (setting [5]), greater than 100 µM.
For `NCC(=O)N1CCC[C@H]1C(=O)O` [Glycylproline] (H-Gly-Pro-OH), in series [1] (setting [5]), the Ki was greater than 100 µM.
Molecule `N[C@@H](Cc1c[nH]cn1)C(=O)O` [L-Histidine] came in with a Ki in series [1] (setting [6]) of 83 µM.
For `O=C(O)[C@H]1CN[C@H](C(=O)O)C1` [L-Trans-2,4-PDC, trans-L-pyrrolidone-2,4-dicarboxylate], the “inhibition of L-proline uptake (in words)” value (“inhibition” for short) in series [1] is reported as “none of the excitatory amino acid analogs examined, including the specific L-glutamate uptake blocker, trans-L-pyrrolidone-2, 4-dicarboxylate (L-trans-2,4-PDC) (Bridges et al., 1991), significantly inhibited L-proline uptake”. In addition, the inhibition constant (Ki) in series [1] (setting [5]) is greater than 100 µM.
As for `NC(=O)C[C@H](N)C(=O)O` [L-Asparagine], the Ki in series [1] (setting [5]) is greater than 100 µM.
The same measure, in the same setting: next, `NC1CCN(O)C1=O` (stereo not drawn) [HA-966, 3-Amino-1-hydroxy-2-pyrrolidone]: greater than 100 µM.
The same measure, in the same setting: the value for `NCCCC(=O)O` [GABA, gammaaminobutyric acid] was greater than 100 µM.
Take `CC[C@H](C)[C@H](N)C(=O)O` [L-Isoleucine]: in series [1] (setting [5]), the Ki was greater than 100 µM.
Consider `N=C(N)NCCC[C@H](N)C(=O)O` [L-Arginine], for which, in series [1] (setting [5]), the Ki was greater than 100 µM.
On the same count and under the same terms, next, `C[C@H](N)C(=O)O` [L-Alanine]: greater than 100 µM.
The same measure, in the same setting: next, `N[C@@H](Cn1oc(=O)[nH]c1=O)C(=O)O` [Quisqualic acid]: greater than 100 µM; `O=C(O)CNC(=O)[C@@H]1CCCN1` [Prolylglycine] (H-Pro-Gly-OH): greater than 100 µM.
On the same count and under the same terms, next, `N[C@@H](CSSC[C@H](N)C(=O)O)C(=O)O` [L-Cystine]: greater than 100 µM.
As to `CC(C)C[C@H](N)C(=O)O` [L-Leucine], the inhibition constant (Ki) in series [1] (setting [5]) was greater than 100 µM.
Same read-out and setting: next, `N[C@H](C(=O)O)c1cc(=O)[nH]o1` [Ibotenic acid]: greater than 100 µM; `NC(=O)[C@@H]1CCCN1` [L-Prolinamide]: greater than 100 µM.
The same measure, in the same setting: the value for `CCCC[C@@H](N)C(=O)O` [D-Norleucine] was greater than 100 µM.
`N[C@@H](CS)C(=O)O` [L-Cysteine]: the Ki in series [1] (setting [6]) amounted to 91 µM.
On to `NCCCC[C@H](N)C(=O)O` [L-Lysine], for which the inhibition constant (Ki) in series [1] (setting [5]) was greater than 100 µM.
With `CN[C@H](CC(=O)O)C(=O)O` [N-methyl-D-aspartate], the Ki in series [1] (setting [5]) was greater than 100 µM.
Still for that read-out and setting: next, `C[C@@H](O)[C@H](N)C(=O)O` [L-Threonine]: greater than 100 µM.
For the molecule `O=C(O)[C@@H]1CCCCN1` [L-Pipecolic acid], the inhibition constant Ki in series [1] (setting [6]) was found to be 14 µM.
On to `N[C@H](CC(=O)O)C(=O)O` [D-Aspartic acid], for which, in series [2], the “transport induced by the transporter cDNA (in words)” value is listed as “did not induce transport”. Moreover, in series [1] (setting [5]), the Ki was greater than 100 µM.
For the molecule `N[C@@H](Cc1ccccc1)C(=O)O` [L-Phenylalanine], the affinity in series [1] (setting [6]), expressed as Ki, was 48 µM.
Regarding `CC(C)[C@H](N)C(=O)O` [L-Valine], the inhibition constant Ki in series [1] (setting [5]) was greater than 100 µM.
Consider `N[C@@H](CC(=O)O)C(=O)O` [L-Aspartic acid], for which the “inhibition” value in series [1] is reported as “inability”. For the same molecule, the Ki in series [1] (setting [5]) is greater than 100 µM.
Regarding `N[C@]1(C(=O)O)CC[C@H](C(=O)O)C1` (relative stereo) [Trans-ACPD, trans1-aminocyclopentane-1,3-dicarboxylic acid], the Ki in series [1] (setting [5]) is greater than 100 µM.
Same read-out and setting: the value for `O=C(O)[C@@H]1C[C@@H](O)CN1` [Hydroxyproline] was greater than 100 µM.
Regarding `N[C@@H](CCC(=O)O)C(=O)O` [L-Glutamic acid], the “transport induced by the transporter cDNA (in words)” value in series [2] is given as “did not induce transport”. Besides, the “inhibition” value in series [1] is reported as “inability”. Moreover, the inhibition constant Ki in series [1] (setting [5]) was greater than 100 µM.
Turning to `C=C(C)[C@H]1CN[C@H](C(=O)O)[C@H]1CC(=O)O` [Kainic acid], the Ki in series [1] (setting [5]) is greater than 100 µM.
Turning to `O=C(O)[C@H]1CCCN1` [D-Proline], the Ki in series [1] (Ki (inhibition of L-[3H]proline transport)) and in series [1] (setting [5]) was greater than 100 µM throughout.
Consider `N[C@@H](Cc1c[nH]c2ccccc12)C(=O)O` [L-Tryptophan], for which the inhibition constant Ki in series [1] (setting [5]) was greater than 100 µM.
Still for that read-out and setting: next, `O=C(O)[C@H]1CCCN[C@H]1C(=O)O` (racemic) [(+/-)cis-2,3-piperidine dicarboxylic acid]: greater than 100 µM.
The molecule `CCCC[C@H](N)C(=O)O` [L-Norleucine] gave an inhibition constant (Ki) in series [1] (setting [6]) of 37 µM.
As for `O=C(O)c1ccc[nH]1` [Pyrrole-2-carboxylic acid], the inhibition constant (Ki) in series [1] (setting [5]) was greater than 100 µM.
In turn, `N[C@@H](Cc1ccc(O)cc1)C(=O)O` [L-Tyrosine] yielded a Ki in series [1] (Ki values in excess of 100 μM (inhibition of proline uptake)) greater than 100 µM.
`CC(=O)N1CCC[C@H]1C(=O)O` [N-acetylproline]: the Ki in series [1] (setting [5]) was greater than 100 µM.
Same read-out and setting: the value for `NC1(C(=O)O)CC1` [1-Amino-1-cyclopropane carboxylic acid] was greater than 100 µM.
Consider `O=C1CC[C@@H](C(=O)O)N1` [L-Pyroglutamic acid], for which the Ki in series [1] (setting [5]) is greater than 100 µM.
As for `CSCC[C@H](N)C(=O)O` [L-Methionine], in series [1] (setting [5]), the inhibition constant Ki is greater than 100 µM.
As to `O=C(O)[C@@H]1CCCN1` [L-proline], the Km in the series with rat brain synaptosomes (read-out: Km, high affinity component, high affinity) was 6 to 12 µM; in the series with rat brain synaptosomes (read-out: Km, low affinity component, low affinity), greater than 190 µM; in series [3] (read-out: apparent Michaelis constant (Km), 20 min incubation, 50 nM L-[3H]proline plus unlabeled L-proline, HeLa cells transfected with pPROT), roughly 9.7 µM; with HeLa cells (read-out: Km of endogenous L-proline transport, plasmid vector-transfected HeLa cells), greater than 200 µM. Besides, in series [3] (Na+ dependence, choline chloride), the “specific L-proline uptake upon isotonic substitution of NaCl with choline chloride” value was “abolished”. Further, the “endogenous L-proline transport as percent of pPROT-induced transport” value with HeLa cells was “less than 10%”.

B1: high affinity, Na^+ -dependent rat brain L-proline transporter (Rattus norvegicus) (protein)
chain: T1 sequence (P28573 1-637)
With B1, in series [4], the Michaelis-Menten constant (Km) is 9.7 µM.

Usually Ki stands for a dissociation constant, usually derived from enzyme kinetics or from competition with a known ligand. Broadly, the Km is the concentration of substrate that gives half-maximal velocity.
